“And” between values parts separate entries of the source, which are not always exact repeats. Equal entries are not always repeated.
What was measured:
[1] = tested on: mice, 25 minutes renal ischemia/reperfusion; assay: Mouse renal ischemia reperfusion test (mortality, BUN/serum urea); assay type: in vivo; design: BUN, mean / Urea level: unit not given here; conditions: for BUN, mean: 5 mg/kg i.v.
Procedure: SEQ ID NO:2 was tested and compared with PBS (control) in a double blind animal study for the peptide's relative ability to aid recovery in a mouse renal ischemia reperfusion test. In this test, the mice were anesthetized, and one kidney from each mouse was removed. The other kidney was tied off for 25 minutes, and the serum urea levels were allowed to increase. Both before and after tying off, the peptide was administered to thirty (30) different mice (5 mg oligopeptide/kg body mass intravenously), after which, the mortality of the mice was determined for each oligopeptide as well as was the BUN concentration at two hours, 24 hours and 72 hours.
Under inhalation anesthesia, the left kidney with its artery and vein was isolated and occluded for 25 minutes using a microvascular clamp. During surgery animals were placed on a heating path to maintain body temperature at 37° C. Five minutes before placing the clamp, and 5 minutes before releasing the clamp, 5 mg/kg of peptide, dissolved in 0.1 mL of sterile saline, was administered intravenously. After reperfusion of the left kidney the right kidney was removed. Kidney function was assessed by measuring blood urea nitrogen before clamping, and at 2, 24, and 72 hours after reperfusion.
To determine dose-response relationships SEQ ID NO:2, was tested in a dose-response manner in the mice test as described above. Peptides were tested at 0.3, 1, 3, 10 and 30 mg/kg dosages given as described in Example I. Serum urea levels are presented in Table 3.

[2] = tested on: BALB/c mice injected i.p. with LPS (E. coli 026:B6); assay: LPS-induced septic shock (endotoxin model) in BALB/c mice; assay type: in vivo, mouse; design: key to Sickness score of individual mouse: 0: No abnormalities.; 1: Percolated fur, but no detectable behavior differences compared to normal mice.; 2: Percolated fur, huddle reflex, responds to stimuli (such as tap on cage), just as active during handling as healthy mouse.; 3: Slower response to tap on cage, passive or docile when handled, but still curious when alone in a new setting.; 4: Lack of curiosity, little or no response to stimuli, quite immobile.; 5: Labored breathing, inability or slow to self-right after being rolled onto back (moribund, sacrificed).; Dead; conditions: for number of mice with sickness score 1 / number of mice with sickness score 2: peptide twice (t = 2 hr and 24 hr) 5 mg/kg; for Survival %: group of 6, 48 hrs
Procedure: Mice used in sepsis or septic shock experiments: Female BALB/c mice of 8-12 weeks of age were used for all experiments. The animals were bred in our facility under specific pathogen-free conditions according to the protocols described in the Report of European Laboratory Animal Science Associations (FELASA) Working group on Animal Health (Laboratory Animals 28: 1-24, 1994).
Injection protocols: For the endotoxin model, BALB/c mice were injected i.p. with 150-300 μg LPS (E. coli 026:B6; Difco Lab., Detroit, Mich., USA). Control groups were treated with PBS i.p. only. To test the effect of peptides, they were dissolved in PBS and injected i.p. at predetermined points in time after LPS treatment.
Mice were scored for sickness severity using the following measurement scheme: • 0 No abnormalities. • 1 Percolated fur, but no detectable behavior differences compared to normal mice. • 2 Percolated fur, huddle reflex, responds to stimuli (such as tap on cage), just as active during handling as healthy mouse. • 3 Slower response to tap on cage, passive or docile when handled, but still curious when alone in a new setting. • 4 Lack of curiosity, little or no response to stimuli, quite immobile. • 5 Labored breathing, inability or slow to self-right after being rolled onto back (moribund, sacrificed). • D Dead […]
A comparative trial was set up to compare peptide MTR and SEQ ID NO:2. The comparative trial comprised 6 groups of 6 animals; two groups (1A and 1B) receiving placebo (PBS), one group (2) peptide MTR (source Pepscan, Lelystad, NL), one group (3) receiving peptide MTR (source Ansynth), one group (4) receiving peptide SEQ ID NO:2 (source Pepscan) and one group peptide SEQ ID NO:2 (source Ansynth). Peptide/placebo in these groups was administered 2 hours after LPS. LPS (source) was used at 10-11 mg/kg. Sickness scores were done at 0, 2, 22 26 42 and 48 hours after LPS injection.

[3] = 5 mg/kg i.p. given both early (2 hours) or late (24 hours)

## AQGV [tetrapeptide derived from human chorionic gonadotropin, alanine replacement of LQGV]
[1]; 0.3 mg/kg, 24 h
  Mortality in dose-response experiment: 0-9
  Urea level: 62.4
[1]; 0.3 mg/kg, 72 h
  Mortality in dose-response experiment: 2-10
  Urea level: 86.7
[1]; 1.0 mg/kg, 24 h
  Mortality in dose-response experiment: 0-10
  Urea level: 50.0
[1]; 1.0 mg/kg, 72 h
  Mortality in dose-response experiment: 1-8
  Urea level: 52.6
[1]; 3.0 mg/kg, 24 h
  Mortality in dose-response experiment: 1-10
  Urea level: 37.4
[1]; 3.0 mg/kg, 72 h
  Mortality in dose-response experiment: 0-10
  Urea level: 19.6
[1]; 5 mg/kg i.v. before and after clamping, dead/total
  mortality at 72 hours post-reperfusion: 0/10
[1]; 10.0 mg/kg, 24 h
  Mortality in dose-response experiment: 0-10
  Urea level: 41.2
[1]; 10.0 mg/kg, 72 h
  Mortality in dose-response experiment: 0-8
  Urea level: 37.1
[1]; 30.0 mg/kg, 24 h
  Mortality in dose-response experiment: 0-8
  Urea level: 47.8
[1]; 30.0 mg/kg, 72 h
  Mortality in dose-response experiment: 3-10
  Urea level: 38.0
[1]; 2 hr after reperfusion
  BUN, mean: 16.62
[1]; 24 hr after reperfusion
  BUN, mean: 26.36
[1]; 72 hr after reperfusion
  BUN, mean: 22.31
[1]; t = 0 hr (before clamping)
  BUN, mean: 9.713
[2]; [3]
  clinical signs of shock at 84 hours after LPS-treatment: no remaining clinical signs of shock
  survival at 84 hours after LPS-treatment: 100%
[2]; LPS dose 10.5, t = 24 hr
  number of mice with sickness score 1: 2
  number of mice with sickness score 2: 3
[2]; LPS dose 10.5, t = 48 hr
  number of mice with sickness score 1: 5
[2]; LPS dose 11, t = 24 hr
  number of mice with sickness score 1: 2
  number of mice with sickness score 2: 4
[2]; LPS dose 11, t = 48 hr
  number of mice with sickness score 1: 6
[2]; single injection 5 mg/kg 2 hours after LPS (300 μg), time 0 hours
  % survival: 100%
[2]; single injection 5 mg/kg 2 hours after LPS, time 14 hours
  % survival: 100%
[2]; single injection 5 mg/kg 2 hours after LPS, time 24 hours
  % survival: 100%
[2]; single injection 5 mg/kg 2 hours after LPS, time 48 hours
  % survival: 100%
[2]; single injection 5 mg/kg 2 hours after LPS, time 84 hours
  % survival: 100%
[2]; single injection 5 mg/kg 24 hours after LPS (300 μg), time 0 hours
  % survival: 100%
[2]; single injection 5 mg/kg 24 hours after LPS, time 14 hours
  % survival: 100%
[2]; single injection 5 mg/kg 24 hours after LPS, time 24 hours
  % survival: 100%
[2]; single injection 5 mg/kg 24 hours after LPS, time 48 hours
  % survival: 100%
[2]; single injection 5 mg/kg 24 hours after LPS, time 84 hours
  % survival: 100%
[2]; source Ansynth (#Ansynth 12/46) 2 hours after LPS 10-11 mg/kg, 0 hrs (before peptide)
  Sickness score of individual mouse: 0
[2]; source Ansynth (#Ansynth 12/46) 2 hours after LPS 10-11 mg/kg, 2 hrs (at peptide administration)
  Sickness score of individual mouse: 2
[2]; source Ansynth (#Ansynth 12/46) 2 hours after LPS 10-11 mg/kg, 22 hrs
  Sickness score of individual mouse: 3 (2×) and 2 (3×) and 4
[2]; source Ansynth (#Ansynth 12/46) 2 hours after LPS 10-11 mg/kg, 26 hrs
  Sickness score of individual mouse: 3 (2×) and 2 (3×) and 4
[2]; source Ansynth (#Ansynth 12/46) 2 hours after LPS 10-11 mg/kg, 42 hrs
  Sickness score of individual mouse: 2 and 3 and 1 (3×) and 5
[2]; source Ansynth (#Ansynth 12/46) 2 hours after LPS 10-11 mg/kg, 48 hrs
  Sickness score of individual mouse: 1 (5×) and dead
[2]; source Ansynth (#Ansynth 12/46) 2 hours after LPS 10-11 mg/kg
  Survival %: 83%
[2]; source Pepscan (#970/#971) 5 mg/kg 2 hours after LPS 10-11 mg/kg, 0 hrs (before peptide)
  Sickness score of individual mouse: 0
[2]; source Pepscan (#970/#971) 5 mg/kg 2 hours after LPS 10-11 mg/kg, 2 hrs (at peptide administration)
  Sickness score of individual mouse: 2
[2]; source Pepscan (#970/#971) 5 mg/kg 2 hours after LPS 10-11 mg/kg, 22 hrs
  Sickness score of individual mouse: 2 (4×) and 3 and 4
[2]; source Pepscan (#970/#971) 5 mg/kg 2 hours after LPS 10-11 mg/kg, 26 hrs
  Sickness score of individual mouse: 2 (3×) and 3 (2×) and 5
[2]; source Pepscan (#970/#971) 5 mg/kg 2 hours after LPS 10-11 mg/kg, 42 hrs
  Sickness score of individual mouse: 2 (5×) and dead
[2]; source Pepscan (#970/#971) 5 mg/kg 2 hours after LPS 10-11 mg/kg, 48 hrs
  Sickness score of individual mouse: 2 (3×) and 1 (2×)
[2]; source Pepscan (#970/#971) 5 mg/kg 2 hours after LPS 10-11 mg/kg
  Survival %: 83%

From patent US8680059B2, “Oligopeptide acetate and formulations thereof” (Biotempt B.V., priority 1998, dated 2014)
